{"source": "patent US20080317883A1", "about": "“METHODS FOR TREATING DEPRESSION” (priority 2006, published 2008)", "key": {"[1]": {"system": "submissive rats", "experiment": "Reduction of Submissive Behavior Model (RSBM) of depression, dominant-submissive rat food competition test", "assay_type": "in vivo, Sprague-Dawley rats", "excerpt": "(§1) In this study, the effects of COMPOUND #7 on dominant or submissive behavior in pairs of rats competing for food are examined. It has been shown that anti-manic drugs, including anticonvulsants, decrease dominance and antidepressant drugs reduce submissiveness. This model uses dominant behavior as a model of mania and submissive behavior as a model of depression. The dominance and submissiveness is defined in a competition test and measured as the relative success of two food-restricted rats to gain access to a feeder. Rats are randomly paired and placed in an apparatus allowing them to compete for a food reward. The dominant-submissive relationship develops over a 2-week period. The submissive or dominant animals in pairs selected after 2 weeks of training were treated orally […] (b.i.d.) with COMPOUND #7 at 3 or 30 mg/kg for 5 weeks. The partner of the drug-treated animal was treated with vehicle.\n(§2) The objective of this study was to determine if COMPOUND #7 active in the Reduction of Submissive Behavior Model (RSBM) of depression and the Reduction of Dominant Behavior Model (RDBM) of mania. Measurements were made at two doses (3 and 30 mg/kg) after oral twice a day (b.i.d.) administration. The effect of the drug in the RSBM was compared to the effect of fluoxetine (10 mg/kg) and vehicle (0.5% methylcellulose). The effect of the drug in the RDBM was compared with the effect of lithium (100 mg/kg) and vehicle (0.5% methylcellulose). The endpoints measured were the development of a significant reduction of submissive or dominant behavior and its time of onset.\nThe DSR developed by two rats competing for food uses the apparatus in FIG. 1. The methodology and equipment are described in several publications; (See: Malatynska E, Goldenberg R, Shuck L, Haque A, Zamecki P, Crites G, Schindler N, Knapp R J. Reduction of submissive behavior in rats: a test for antidepressant drug activity. Pharmacology 2002; 64:8; Malatynska E, Rapp R, Crites G. Dominant behavior measured in a competition test as a model of mania. In: International Behavioral Neuroscience Society Meeting, ed. IBNSCapri, Italy, 2002, p 26; Carpenter L L, Leon Z, Yasmin S, Price L H. Do obese depressed patients respond to topiramate? A retrospective chart review. J Affect Disord 2002; 69:251; McElroy S L, Zarate C A, Cookson J, Suppes T, Huffman R F, Greene P, Ascher J. A 52-week, open-label continuation study of lamotrigine in the treatment of bipolar depression. J Clin Psychiatry 2004; 65:204; Bonnet U. Moclobemide: therapeutic use and clinical studies. CNS Drug Rev 2003; 9:97; Danysz W, Plaznik A, Kostowski W, Malatynska E, Jarbe T U, Hiltunen A J, Archer T. Comparison of desipramine, amitriptyline, zimeldine and alaproclate in six animal models used to investigate antidepressant drugs. Pharmacol Toxicol 1988; 62:42; Knapp R J, Goldenberg R, Shuck C, Cecil A, Watkins J, Miller C, Crites G, Malatynska E. Antidepressant activity of memory-enhancing drugs in the reduction of submissive behavior model. Eur J Pharmacol 2002; 440:27; Kostowski W, Malatynska E, Plaznik A, Dyr W, Danysz W. Comparative studies on antidepressant action of alprazolam in different animal models. Pol J Pharmacol Pharm 1986; 38, 471 and Malatynska E, De Leon I, Allen D, Yamamura H I. Effects of amitriptyline on GABA-stimulated ^36Cl^− uptake in relation to a behavioral model of depression. Brain Res Bull 1995; 37:53) In the experiments described in this report Sprague-Dawley rats weighing 160 to 180 g were used. […]"}, "[2]": {"system": "dominant rats", "experiment": "Reduction of Dominant Behavior Model (RDBM) of mania, dominant-submissive rat food competition test", "assay_type": "in vivo, Sprague-Dawley rats", "excerpt": "as §1, §2\nThe DSR developed by two rats competing for food uses the apparatus in FIG. 1. The methodology and equipment are described in several publications; (See: Malatynska E, Goldenberg R, Shuck L, Haque A, Zamecki P, Crites G, Schindler N, Knapp R J. Reduction of submissive behavior in rats: a test for antidepressant drug activity. Pharmacology 2002; 64:8; Malatynska E, Rapp R, Crites G. Dominant behavior measured in a competition test as a model of mania. In: International Behavioral Neuroscience Society Meeting, ed. IBNSCapri, Italy, 2002, p 26; Carpenter L L, Leon Z, Yasmin S, Price L H. Do obese depressed patients respond to topiramate? A retrospective chart review. J Affect Disord 2002; 69:251; McElroy S L, Zarate C A, Cookson J, Suppes T, Huffman R F, Greene P, Ascher J. A 52-week, open-label continuation study of lamotrigine in the treatment of bipolar depression. J Clin Psychiatry 2004; 65:204; Bonnet U. Moclobemide: therapeutic use and clinical studies. CNS Drug Rev 2003; 9:97; Danysz W, Plaznik A, Kostowski W, Malatynska E, Jarbe T U, Hiltunen A J, Archer T. Comparison of desipramine, amitriptyline, zimeldine and alaproclate in six animal models used to investigate antidepressant drugs. […]"}, "[3]": {"system": "Male CF-1 mice", "experiment": "Forced swimming test in mice (behavioral despair)", "assay_type": "in vivo", "conditions": "1 h before test; for reduction in immobility: 4-minute test period", "excerpt": "Porsolt (1977) proposed a model for screening antidepressants in mice, called the “behavioral despair” test. (See, Porsolt, R D et al. Behavioral despair in mice: A preliminary screening test for antidepressants. Arch Int Pharmacodyn Ther 229; 327-336:1977 and Porsolt, R D et al. Behavioral despair in rats: a new model sensitive to antidepressant treatments, Eur. J. Pharmacol., 47, 379-391, 1978). This test is also called the forced swim test In this test, a mouse is placed in a container of water and swims, apparently trying to escape. The animal then alternates periods of swimming and floating, i.e., remaining immobile. Antidepressants are among those drugs that reduce the periods of immobility. In the present report COMPOUND #7 was tested in the forced swimming procedure in mice to determine whether the compound had any potential antidepressant activity.\nMale CF-1 mice (18-22 g) were purchased from Charles River Breeding Laboratories, Kingston, N.Y. Animals were housed in standing wire cages with free access to food and water. Experiments were initiated only after an acclimation period of at least 3 days to the animal room environment which consisted of automatically controlled illumination with a 12-hour light/dark cycle and controlled temperature and relative humidity.\nCOMPOUND #7 was dissolved in 30% polyethylene glycol 400 in deionized water and administered to animals by oral gavage in a volume of 0.1 ml/10 g body weight.\nThe method was similar to that described by Porsolt et al. (1977)1 with minor modifications (See, Porsolt R D, Bertin A, Jalfre M. Behavioral despair in mice: A preliminary screening test for antidepressants. Arch Int Pharmacodyn Ther 229; 327-336:1977)\nMice were pre-swum the day before the test for 5 minutes. On the test day, mice were dosed orally with either test compound or vehicle. One hour later each animal was placed in a glass cylinder (1000-ml beaker; height 14 cm, diameter 11.5 cm) containing water up to a height of 9 cm (water temperature at 25° C.). Following a 2-minute pretest, immobility of each mouse was recorded for a 4-minute test period. Immobility was defined as the animal making only those movements to stay afloat, especially combined with lack of movement of its hind legs. Each group consisted of 8 mice."}, "[4]": {"system": "Male NMRI mice", "experiment": "Mouse tail suspension test (TST)", "assay_type": "in vivo", "experimental": "The tail suspension test (TST) is an acute test which is predictive of anti-depressant activity of a test compound. (See, Steru, L. et al. Psychopharmacology, 85, 367-370, 1985)\nMale NMRI mice (22-26 g; n=12 mice per dose) is given a single dose of vehicle (aqueous solution of 1 equivalent tartaric acid+0.45% NaCl+10% cyclodextrin, i.p.), imipramine (128 mg/kg, p.o. in an aqueous solution of 0.9% NaCl) or COMPOUND #7 (at 1, 3 AND 30 mg/kg, p.o.) 60 min prior to tail suspension. All substances were administered in a volume of […]. In this test, the mice are submitted to an unpleasant and inescapable situation (i.e. hanging by the tail) for 6 min. Once suspended, motor activity diminishes rapidly and the mice become immobile. A compound is considered active as an antidepressant in this model, when there is a reduction in immobility time. Viewpoint video-tracking software is utilized to record immobility time."}, "[5]": {"system": "Male rats of Wistar (Han) strain", "experiment": "Behavioral despair or forced swim test in the rat", "assay_type": "in vivo", "conditions": "4 hours and 60 minutes before the test, 5 minute test", "excerpt": "The behavioral despair or forced swim test (FST) in rats as in mice (see Example 2) is an acute test of anti-depressant activity. Antidepressant-like compounds are known to be active in this assay (e.g., tricyclics, MAO inhibitors, SSRIs), although activity can vary with mouse strain differences, as would be known to one of skill in the art. (See, Porsolt, R D et al. Behavioral despair in rats: a new model sensitive to antidepressant treatments, Eur. J. Pharmacol., 47, 379-391, 1978) and also (see; Porsolt, R D et al. Behavioral despair in mice: A preliminary screening test for antidepressants. Arch Int Pharmacodyn Ther 229; 327-336:1977)\nThe assay procedure is as follows. Male rats of Wistar (Han) strain, 185-245 g body weight supplied by Elevage Janvier, 53940 Le Genest-Saint-Isle, France were used. These animals were administered 1, 3 and 30 mg/kg of COMPOUND #7 p.o. 24 hours, 4 hours and 60 minutes before the test. Active control animals were given imipramine 64 mg/kg under the same conditions. […] Imipramine at 64 mg/kg administered under the same experimental conditions decreased the duration of immobility by 44% as compared to vehicle."}, "[6]": {"system": "dominant rats", "conditions": "administered to dominant rats, literature; cited from earlier work"}, "[7]": {"system": "submissive rats", "conditions": "literature, cited from earlier work"}, "[8]": {"conditions": "treatment of the submissive subject for 3 weeks"}}, "note": "Like-named read-outs stand apart in the source and are kept apart here.", "data": [{"smiles": "NC(=O)OC[C@@H](O)c1ccccc1Cl", "note": "[COMPOUND #7]", "values": [{"measurement": "effect on submissive rat behavior (time spent on feeder)", "setting": "[1]; 3 mg/kg b.i.d. p.o. for 5 weeks, submissive rat treated, partner vehicle", "value": "did not have any effect"}, {"measurement": "onset of increased competitiveness of submissive rats (treatment time)", "setting": "[1]; 30 mg/kg b.i.d. p.o.", "value": 1, "unit": "week"}, {"measurement": "effect on competitiveness of submissive rat (time spent on feeder, dominance level)", "setting": "[1]; 30 mg/kg b.i.d. p.o. for 5 weeks, vs vehicle-treated submissive rats", "value": "significantly increased competitiveness"}, {"measurement": "onset of significant decrease of dominant rat performance (treatment time)", "setting": "[2]; 3 mg/kg b.i.d. p.o.", "value": 3, "unit": "weeks"}, {"measurement": "effect on performance of dominant rats (time spent on feeder)", "setting": "[2]; 3 mg/kg b.i.d. p.o. for 5 weeks, dominant rat treated, partner vehicle", "value": "decreased the performance of dominant rats"}, {"measurement": "onset of increased competitiveness of dominant rats (treatment time)", "setting": "[2]; 30 mg/kg b.i.d. p.o.", "value": 2, "unit": "weeks"}, {"measurement": "effect on competitiveness of dominant rats", "setting": "[2]; 30 mg/kg b.i.d. p.o. for 5 weeks, vs vehicle treated dominant rats", "value": "significantly increased the competitiveness"}, {"measurement": "reduction in immobility", "setting": "[3]; 1 mg/kg oral", "value": 25, "unit": "%"}, {"measurement": "reduction in immobility", "setting": "[3]; 3 mg/kg oral", "value": 28, "unit": "%"}, {"measurement": "reduction in immobility", "setting": "[3]; 10 mg/kg oral", "value": 43, "unit": "%"}, {"measurement": "reduction in immobility (significance)", "setting": "[3]; 17.3 mg/kg oral", "value": "not significant"}, {"measurement": "reduction in immobility (significance)", "setting": "[3]; 30 mg/kg oral", "value": "not significant"}, {"measurement": "effect on duration of immobility", "setting": "[4]; 1, 3 and 30 mg/kg p.o. 60 minutes before the test", "value": "did not affect the duration of immobility"}, {"measurement": "effect on duration of immobility", "setting": "[5]; 1, 3 and 30 mg/kg p.o. 24 hours", "value": "did not affect the duration of immobility"}]}, {"smiles": "CC(N)Cc1ccccc1", "note": "(stereo not shown) [amphetamine, reference compound]", "values": [{"measurement": "effect on submissive behavior", "setting": "[1]; treatment of submissive rats, psychostimulant, unpublished observation", "value": "ineffective"}]}, {"smiles": "NC(=O)N1c2ccccc2C=Cc2ccccc21", "note": "[carbamazepine]", "values": [{"measurement": "effect on competitive behavior of dominant rats", "setting": "[6]", "value": "significantly reduced competitive behavior"}]}, {"smiles": "Clc1cccc(Cl)c1N=C1NCCN1", "note": "[clonidine]", "values": [{"measurement": "effect on competitive behavior of dominant rats", "setting": "[6]", "value": "significantly reduced competitive behavior"}]}, {"smiles": "CNCCCN1c2ccccc2CCc2ccccc21", "note": "[desipramine]", "values": [{"measurement": "effect on submissive behavior", "setting": "[7]; [8]", "value": "reduced submissive behavior"}]}, {"smiles": "CN1C(=O)CN=C(c2ccccc2)c2cc(Cl)ccc21", "note": "[diazepam]", "values": [{"measurement": "effect on submissive behavior", "setting": "[7]; treatment of submissive rats, anxiolytic", "value": "ineffective"}]}, {"smiles": "CNCCC(Oc1ccc(C(F)(F)F)cc1)c1ccccc1", "note": "(stereo not shown) [fluoxetine, reference compound]", "values": [{"measurement": "onset of significant effect in submissive rats (treatment time)", "setting": "[1]; 10 mg/kg i.p. once a day, previous experimental set", "value": 3, "unit": "weeks"}, {"measurement": "effect on submissive behavior", "setting": "[7]; [8]", "value": "reduced submissive behavior"}]}, {"smiles": "CN(C)CCCN1c2ccccc2CCc2ccccc21", "note": "[imipramine, reference compound]", "values": [{"measurement": "decrease of duration of immobility as compared with control", "setting": "[4]; 128 mg/kg p.o. 60 minutes before the test", "value": "−69", "unit": "%"}, {"measurement": "decrease of duration of immobility as compared to vehicle", "setting": "[5]; 64 mg/kg p.o. 24 hours", "value": 44, "unit": "%"}, {"measurement": "effect on submissive behavior", "setting": "[7]; [8]", "value": "reduced submissive behavior"}]}, {"smiles": "CCCC(CCC)C(=O)[O-].[Na+]", "note": "[sodium valproate]", "values": [{"measurement": "effect on competitive behavior of dominant rats", "setting": "[6]", "value": "significantly reduced competitive behavior"}]}]}
